Results taken from patent US8877757B2, “Pyrazine derivatives and use as PI3K inhibitors” (Merck Serono SA, priority 2005, dated 2014).

Assays:
[1] = system: Akt phosphorylation in B cells; assay: IgM-induced Akt phosphorylation in B cell (human PBMC, flow cytometry); assay type: cell-based; conditions: 5 min, CD19+ IgM+ B cells in human PBMC, anti IgM for 5 minutes, read-out: IC50, inhibition of IgM-induced Akt Phosphorylation
Method: Human PBMC were prepared from a Buffy coat (Geneve Hospital) after a Ficoll gradient (FICOLL-PAQUE Plus PHARMACIA ref: 17-1440-03).
Cell concentration was adjusted to 10^6 cells per ml in RPMI (GIBCO Ref: 72400-21) without serum. Before stimulation, 90 μl of PBMC suspension was incubated with 10 μl of diluted compound in a 96 well round bottom plate for 20 minutes at 37° C.
For B cell activation, 30 μl of Fab′2 Goat anti IgM (Jackson Immuno-research) at 10 μg/ml was added to each well. After 5 minutes, cell activation was stopped with 4% paraformaldehyde (10 minutes at room temperature).
Fixed PBMC were then treated for 20 minutes with 0.15% Triton, washed twice with PBS and permeabilized with 50% methanol for 15 minutes.
PBMC were washed twice in PBS, resuspended in: PBS-4% FCS and incubated with anti P-Akt (1/100 dilution) for one hour at room temperature.
After one wash, PBMC were further stained for 30 minutes with a mixture of anti-CD19-PE (BD Biosciences), anti-IgM-FITC (BD Biosciences) and goat anti rabbit IgG-Alexa 647 (Molecular probe).
After washing, PBMC (Peripheral Blood Mononuclear Cells) were analysed on a FACSCalibur instrument (BD Biosciences) equipped with a 633 helium-neon laser, or stored at 4° C. for further analysis. 510^3 B cells events were gathered per sample in the CD19 positive region.
For the analysis, a threshold was applied on P-Akt histogram of CD 19+ IgM+ lymphocytes cells from the non-stimulated samples and the percentage of cells above this threshold was determined for each sample.

[2] = system: PKB/Akt phosphorylation in mast cells; assay: SCF-induced PKB/Akt phosphorylation in mast cells; assay type: cell-based, mice; conditions: Mast cell, 0.25 h; mast cells derived from mouse bone marrow, 20 ng/mL SCF for 15 minutes; read-out: IC50, inhibition of SCF-induced Akt Phosphorylation
Method: Protocol: Primary bone marrow cells were isolated from 4-8 weeks old wild type mice and derived to mast cells by incubation with medium containing 20 ng/mL of stem cell factor (SCF) (PeproTech, Switzerland) and 20 ng/mL of IL-3 (PeproTech, Switzerland) for at least 4 weeks. Confirmation of the expression of mast cell specific surface markers was done by FACS analysis using antibodies against c-kit (cKit-PE mouse antibody; Pharmingen). Cells were maintained in culture in the presence of SCF and IL-3. To induce PKB/Akt phosphorylation, mast cells were resuspended at 2.5×10^6 cells/mL and starved in medium containing no SCF or IL-3 for 24 h. After preincubation with compounds or 1% DMSO for 20 minutes, cells were activated with 20 ng/mL of SCF for 15 minutes at 37° C., fixed in 1.5% paraformaldehyde for 20 minutes and permeabilised with 0.2% Triton X-100 for 10 minutes, at room temperature. PKB/Akt phosphorylation was visualized using phospho-Ser-473 specific Akt antibodies (Cell Signaling) and standard FACS protocols.

Structure (SMILES)	IC50 [1]	IC50 [2]
COc1ccc(OC)c(Nc2nc3ccccc3nc2NS(=O)(=O)c2ccccc2F)c1 [Example 14, N-{3-[(2,5-dimethoxyphenyl)amino]quinoxalin-2-yl}-2-fluorobenzene sulfonamide]	0.034 µM	
COc1cc(Nc2nc3ccccc3nc2NS(=O)(=O)c2ccccc2F)cc(OC)c1 [Example 15, N-{3-[(3,5-dimethoxyphenyl)amino]quinoxalin-2-yl}-2-fluorobenzene sulfonamide]	0.026 µM	
COc1cc(Nc2nc3ccccc3nc2NS(=O)(=O)c2cn(C)cn2)cc(OC)c1 [Example 20, N-{3-[(3,5-dimethoxyphenyl)amino]quinoxalin-2-yl}-1-methyl-1H-imidazole-4-sulfonamide]	0.024 µM	0.41 µM
COc1cc(Nc2nc3ccccc3nc2NS(=O)(=O)c2ccccc2Cl)cc(OC)c1 [Example 38, 2-chloro-N-{3-[(3,5-dimethoxyphenyl)amino]quinoxalin-2-yl}benzene sulfonamide]	0.04 µM	1.89 µM
COc1cc(Nc2nc3ccccc3nc2NS(=O)(=O)c2ccc(C#N)cc2)cc(OC)c1 [Example 39, 4-cyano-N-{3-[(3,5-dimethoxyphenyl)amino]quinoxalin-2-yl}benzene sulfonamide]	0.011 µM	0.35 µM
COc1ccc(OC)c(Nc2nc3ccccc3nc2NS(=O)(=O)c2ccccc2Cl)c1 [Example 42, 2-chloro-N-{3-[(2,5-dimethoxyphenyl)amino]quinoxalin-2-yl}benzene sulfonamide]	0.11 µM	
COc1cc(Nc2nc3ccccc3nc2NS(=O)(=O)c2ccc(F)cc2)cc(OC)c1 [Example 56, N-{3-[(3,5-dimethoxyphenyl)amino]quinoxalin-2-yl}-4-fluorobenzene Sulfonamide]		2.42 µM
COc1cc(Nc2nc3ccccc3nc2NS(=O)(=O)c2cccnc2)cc(OC)c1 [Example 95, N-{3-[(3,5-dimethoxyphenyl)amino]quinoxalin-2-yl}pyridine-3-sulfonamide]		1.6 µM
COc1ccc(C)c(Nc2nc3ccccc3nc2NS(=O)(=O)c2cccnc2)c1 [Example 101, N-{3-[(5-methoxy-2-methylphenyl)amino]quinoxalin-2-yl}pyridine-3-sulfonamide]	0.15 µM	
COc1cc(Nc2nc3ccccc3nc2NS(=O)(=O)c2ccc(C)nc2)cc(OC)c1 [Example 106, N-{3-[(3,5-dimethoxyphenyl)amino]quinoxalin-2-yl}-6-methylpyridine-3-sulfonamide]		1.22 µM
COc1ccc(C)c(Nc2nc3ccccc3nc2NS(=O)(=O)c2ccc(C#N)cc2)c1 [Example 109, 4-cyano-N-{3-[(5-methoxy-2-methylphenyl)amino]quinoxalin-2-yl}benzenesulfonamide]		0.82 µM
COc1ccc(C)c(Nc2nc3ccccc3nc2NS(=O)(=O)c2ccc(C)nc2)c1 [Example 110, N-{3-[(5-methoxy-2-methylphenyl)amino]quinoxalin-2-yl}-6-methylpyridine-3-sulfonamide]	0.14 µM	
COc1ccc(Cl)c(Nc2nc3ccccc3nc2NS(=O)(=O)c2ccc(C)nc2)c1 [Example 111, N-{3-[(2-chloro-5-methoxyphenyl)amino]quinoxalin-2-yl}-6-methylpyridine-3-sulfonamide]	0.026 µM	
COc1cc(Nc2nc3ccccc3nc2NS(=O)(=O)c2cccc(CN3CCOCC3)c2)cc(OC)c1 [Example 129, N-{3-[(3,5-dimethoxyphenyl)amino]quinoxalin-2-yl}-3-(morpholin-4-ylmethyl)benzenesulfonamide]	0.29 µM	
COc1cc(Nc2nc3ccccc3nc2NS(=O)(=O)c2ccc(CN3CCN(C)CC3)cc2)cc(OC)c1 [Example 130, N-{3-[(3,5-dimethoxyphenyl)amino]quinoxalin-2-yl}-4-[(4-methylpiperazin-1-yl)methyl]benzenesulfonamide]	0.06 µM	0.13 µM
COc1ccc(OC)c(Nc2nc3ccccc3nc2NS(=O)(=O)c2ccc(CN)cc2)c1 [Example 131, 4-(aminomethyl)-N-{3-[(2,5-dimethoxyphenyl)amino]quinoxalin-2-yl}benzenesulfonamide]	0.013 µM	0.15 µM
COc1cc(Nc2nc3ccccc3nc2NS(=O)(=O)c2cccc(CO)c2)cc(OC)c1 [Example 132, N-{3-[(3,5-dimethoxyphenyl)amino]quinoxalin-2-yl}-3-(hydroxymethyl)benzenesulfonamide]		0.68 µM
COc1cc(Nc2nc3ccccc3nc2NS(=O)(=O)c2ccc(CO)cc2)cc(OC)c1 [Example 134, N-{3-[(3,5-dimethoxyphenyl)amino]quinoxalin-2-yl}-4-(hydroxymethyl)benzenesulfonamide]		0.21 µM
COc1cc(Nc2nc3ccccc3nc2NS(=O)(=O)c2ccc(CO)nc2)cc(OC)c1 [Example 135, N-{3-[(3,5-dimethoxyphenyl)amino]quinoxalin-2-yl}-6-(hydroxymethyl)pyridine-3-sulfonamide]		0.54 µM
COc1cc(Nc2nc3ccccc3nc2NS(=O)(=O)c2ccc(CN3CCOCC3)cc2)cc(OC)c1 [Example 136, N-{3-[(3,5-dimethoxyphenyl)amino]quinoxalin-2-yl}-4-(morpholin-4-ylmethyl)benzenesulfonamide]	0.37 µM	1.22 µM
COc1cc(Nc2nc3ccccc3nc2NS(=O)(=O)c2cccc(CN3CCN(C)CC3)c2)cc(OC)c1 [Example 137, N-{3-[(3,5-dimethoxyphenyl)amino]quinoxalin-2-yl}-3-[(4-methylpiperazin-1-yl)methyl]benzenesulfonamide]	0.04 µM	0.4 µM
COc1cc(Nc2nc3ccccc3nc2NS(=O)(=O)c2cccc(CN(C)C)c2)cc(OC)c1 [Example 139, N-{3-[(3,5-dimethoxyphenyl)amino]quinoxalin-2-yl}-3-[(dimethylamino)methyl]benzenesulfonamide]	0.027 µM	0.27 µM
COc1cc(Nc2nc3ccccc3nc2NS(=O)(=O)c2ccc(CN3CCN(C)CC3)nc2)cc(OC)c1 [Example 149, N-{3-[(3,5-dimethoxyphenyl)amino]quinoxalin-2-yl}-6-[(4-methylpiperazin-1-yl)methyl]pyridine-3-sulfonamide]		0.39 µM
COc1cc(Nc2nc3ccccc3nc2NS(=O)(=O)c2ccc(CN)s2)cc(OC)c1 [Example 150, 5-(aminomethyl)-N-{3-[(3,5-dimethoxyphenyl)amino]quinoxalin-2-yl}thiophene-2-sulfonamide]	0.007 µM	0.09 µM
